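Values below derive from 48-hour exposures of cells grown in 96-well plates, with endpoints linearly interpolated between the two concentrations bracketing the appropriate inhibition level. At the GI50, growth is halved.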 Active and inactive are the calls of the source. No stated cut-off is given here; in the data, active = GI50 up to about 1.1 µM and inactive = higher.
Key:
Experiment in all cases: inhibition of tumour cell growth, NCI panel, 48 h
KM12 = tested on: KM12
K562 = tested on: K562
A498 = tested on: A498
RXF 393 = tested on: RXF 393
RPMI-8226 = tested on: RPMI-8226
A549 = tested on: A549
PC-3 = tested on: PC-3
UACC-62 = tested on: UACC-62
HCC 2998 = tested on: HCC 2998
UO-31 = tested on: UO-31
SK-MEL-5 = tested on: SK-MEL-5
NCI-H460 = tested on: NCI-H460
MDA-MB-231 = tested on: MDA-MB-231
EKVX = tested on: EKVX
HOP-92 = tested on: HOP-92
OVCAR-4 = tested on: OVCAR-4
DU-145 = tested on: DU-145
HT-29 = tested on: HT-29
BT-549 = tested on: BT-549
SK-MEL-2 = tested on: SK-MEL-2

SMILES	GI50 (KM12)	GI50 (K562)	GI50 (A498)	GI50 (RXF 393)	GI50 (RPMI-8226)	GI50 (A549)	GI50 (PC-3)	GI50 (UACC-62)	GI50 (HCC 2998)	GI50 (UO-31)	GI50 (SK-MEL-5)	GI50 (NCI-H460)	GI50 (MDA-MB-231)	GI50 (EKVX)	GI50 (HOP-92)	GI50 (OVCAR-4)	GI50 (DU-145)	GI50 (HT-29)	GI50 (BT-549)	GI50 (SK-MEL-2)
NC1=NCC(CN2CCOCC2)O1 (stereo not given)	> 100 µM (inactive)	> 100 µM (inactive)	> 100 µM (inactive)	> 100 µM (inactive)	> 100 µM (inactive)	> 100 µM (inactive)	> 100 µM (inactive)	> 100 µM (inactive)	> 100 µM (inactive)	> 100 µM (inactive)	> 100 µM (inactive)	> 100 µM (inactive)	> 100 µM (inactive)	> 100 µM (inactive)	> 100 µM (inactive)	> 100 µM (inactive)	> 100 µM (inactive)	> 100 µM (inactive)	> 100 µM (inactive)	> 100 µM (inactive)
CC(C)=CCC[C@](C)(O[C@@H]1O[C@H](CO)[C@@H](O)[C@H](O)[C@H]1O)[C@H]1CC[C@]2(C)[C@@H]1[C@H](O)C[C@@H]1[C@@]3(C)CC[C@H](O)C(C)(C)[C@@H]3[C@@H](O[C@@H]3O[C@H](CO)[C@@H](O)[C@H](O)[C@H]3O)C[C@]12C [GINSENOSIDE RG1]	> 100 µM (inactive)	> 100 µM (inactive)	> 100 µM (inactive)	> 100 µM (inactive)	> 100 µM (inactive)	> 100 µM (inactive)	> 100 µM (inactive)	> 100 µM (inactive)	> 100 µM (inactive)	> 100 µM (inactive)	> 100 µM (inactive)	> 100 µM (inactive)	> 100 µM (inactive)	> 100 µM (inactive)	> 100 µM (inactive)	> 100 µM (inactive)	> 100 µM (inactive)	> 100 µM (inactive)	> 100 µM (inactive)	> 100 µM (inactive)
CNC(=S)N/N=C(\C)c1ccc(OC)cc1O	> 100 µM (inactive)	0.7 µM (active)	95.7 µM (inactive)	> 100 µM (inactive)	> 32 µM (inactive)	> 100 µM (inactive)	> 100 µM (inactive)	> 100 µM (inactive)	> 100 µM (inactive)	> 100 µM (inactive)	7.45 µM (inactive)	> 100 µM (inactive)	> 100 µM (inactive)	82.6 µM (inactive)	> 100 µM (inactive)	28.1 µM (inactive)	> 100 µM (inactive)	0.337 µM (active)	> 100 µM (inactive)	> 100 µM (inactive)
Clc1n[nH]c2ccccc12	> 100 µM (inactive)	> 100 µM (inactive)	> 100 µM (inactive)	> 100 µM (inactive)	> 100 µM (inactive)	> 100 µM (inactive)	> 100 µM (inactive)	> 100 µM (inactive)	> 100 µM (inactive)	> 100 µM (inactive)	> 100 µM (inactive)	> 100 µM (inactive)	> 100 µM (inactive)	86.5 µM (inactive)	> 100 µM (inactive)	> 100 µM (inactive)	> 100 µM (inactive)	> 100 µM (inactive)	14.7 µM (inactive)	> 100 µM (inactive)
O=C1C[C@H](COCc2ccccc2)NC(=O)C[C@H](COCc2ccccc2)NC(=O)C[C@H](COCc2ccccc2)N1	> 100 µM (inactive)	3.52 µM (inactive)	12 µM (inactive)	11.5 µM (inactive)	> 100 µM (inactive)	> 100 µM (inactive)	> 100 µM (inactive)	> 100 µM (inactive)	> 100 µM (inactive)	> 100 µM (inactive)	> 100 µM (inactive)	> 100 µM (inactive)	26.7 µM (inactive)	> 100 µM (inactive)	12.2 µM (inactive)	> 100 µM (inactive)	> 100 µM (inactive)	> 100 µM (inactive)	41.6 µM (inactive)	28.2 µM (inactive)
Cn1cnc([N+](=O)[O-])c1Sc1nnc(-c2cccnc2)n1C	> 82 µM (inactive)	19.9 µM (inactive)	> 79.1 µM (inactive)	7.83 µM (inactive)	18.1 µM (inactive)	84.5 µM (inactive)	25 µM (inactive)	17.3 µM (inactive)	30.9 µM (inactive)	32.4 µM (inactive)	16.9 µM (inactive)	> 85.1 µM (inactive)	19.2 µM (inactive)	38.2 µM (inactive)	14.5 µM (inactive)	22.2 µM (inactive)	36.4 µM (inactive)	17.4 µM (inactive)	19 µM (inactive)	18.5 µM (inactive)
